{
  "source": "patent EP1501514B1",
  "about": "“PROTEIN KINASE MODULATORS AND METHODS OF USE” (Exelixis, Inc., priority 2002, dated 2003)",
  "data": [
    {"target": "T1, Chk1 (Homo sapiens, UniProt O14757)", "T1 construct": "purchased Upstate Biotechnology", "T1 sequence (O14757 1-476)": "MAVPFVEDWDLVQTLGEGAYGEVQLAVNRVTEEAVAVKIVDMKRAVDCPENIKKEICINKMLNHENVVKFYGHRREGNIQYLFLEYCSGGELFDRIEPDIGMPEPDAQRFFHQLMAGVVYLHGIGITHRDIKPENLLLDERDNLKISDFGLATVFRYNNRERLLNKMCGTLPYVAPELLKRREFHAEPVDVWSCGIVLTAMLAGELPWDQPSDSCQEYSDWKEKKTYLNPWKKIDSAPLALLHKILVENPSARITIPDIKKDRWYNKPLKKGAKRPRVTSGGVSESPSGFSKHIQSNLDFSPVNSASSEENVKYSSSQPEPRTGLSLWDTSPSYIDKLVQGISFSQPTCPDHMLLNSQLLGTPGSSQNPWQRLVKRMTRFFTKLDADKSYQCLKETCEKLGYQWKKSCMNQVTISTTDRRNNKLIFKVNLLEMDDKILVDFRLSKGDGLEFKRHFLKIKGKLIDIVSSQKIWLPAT", "assay": "Chk1 assay: incorporation of γ-33P ATP into immobilized myelin basic protein", "type": "biochemical", "conditions": "Table 11; Chk1 only", "procedure": "Chk1 and Chk2 assays were performed by measuring incorporation of γ-^33P ATP into immobilized myelin basic protein (MBP). High binding white 384 well plates (Greiner) were coated with MBP (Sigma #M-1891) by incubation of 60ul/well of 20µg/ml MBP in Tris-buffered saline (TBS; 50mM Tris pH 8.0, 138mM NaCl, 2.7mM KCl) for 24 hours at 4° C. Plates were washed 3X with 100µl TBS. Kinase reactions were carried out in a total volume of 34µl in kinase buffer (5mM Hepes pH 7.6, 15mM NaCl, 0.01% bovine gamma globulin (Sigma #I-5506), 10mM MgCl2, 1mM DTT, 0.02% TritonX-100). Compound dilutions were performed in DMSO and added to assay wells to a final DMSO concentration of 1%. Each data point was measured in duplicate, and at least two duplicate assays were performed for each individual compound determination. Chkl and Chk2 enzymes (Upstate Biotechnology) were added to final concentrations of 10nM (Chkl) or 20nM (Chk2). A mixture of unlabeled ATP and γ-^33P ATP was added to start the reaction (2x10^6 cpm of γ-^33P ATP per well (3000Ci/mmole) and either 10µM or 30µM unlabeled ATP (for Chkl and Chk2 assays respectively). The reaction was carried out for 1 hour at room temperature with shaking. Plates were washed 7x with TBS, followed by the addition of 50µl/well scintillation fluid (Wallac). Plates were read using a Wallac Trilux counter. This is only one format of such assays, various other formats are possible, as known to those skilled in the art.\nThe above assay procedure can be used to determine the IC50 for inhibition and/or the inhibition constant Ki. The IC50 is defined as the concentration of compound required to reduce the enzyme activity by 50% under the conditions of the assay. […] The Ki for a compound may be determined from the IC50 based on three assumptions. First, only one compound molecule binds to the enzyme and there is no cooperativity. […] Third, the enzymatic rate of the enzyme-inhibitor complex is zero. The rate (i.e., compound concentration) data are fitted to the equation: V = Vmax E0 [I-((E0+I0+Kd)-sqrt(((E0+I0+Kd))^2 -4E0 I0))/(2E0)] [formula]", "units": {"IC50": "µM"}, "values": [
      {"smiles": "Nc1ncc(-c2ccccc2)nc1C(=O)NCCc1ccccc1", "note": "[compound 1, 3-amino-6-phenyl-N-(2-phenylethyl)pyrazine-2-carboxamide]", "IC50": "> 10"},
      {"smiles": "Nc1ncc(-c2ccccc2)nc1C(=O)NCc1ccccc1", "note": "[compound 2, 3-amino-6-phenyl-N-(phenylmethyl)pyrazine-2-carboxamide]", "IC50": "> 10"},
      {"smiles": "NC(=O)c1nc(-c2cccc(Cl)c2)cnc1N", "note": "[compound 3, 3-amino-6-(3-chlorophenyl)pyrazine-2-carboxamide]", "IC50": "> 10"},
      {"smiles": "Nc1ncc(-c2ccccc2)nc1C(=O)N[C@@H]1CCc2ccccc21", "note": "[compound 4, 3-amino-N-[(1R)-2,3-dihydro-1H-inden-1-yl]-6-phenylpyrazine-2-carboxamide]", "IC50": "> 10"},
      {"smiles": "Nc1ncc(-c2ccccc2)nc1C(=O)NC1Cc2ccccc2C1", "note": "[compound 6, 3-amino-N-(2,3-dihydro-1H-inden-2-yl)-6-phenylpyrazine-2-carboxamide]", "IC50": "> 10"},
      {"smiles": "NC(=O)c1nc(-c2ccccc2Cl)cnc1N", "note": "[compound 7, 3-amino-6-(2-chlorophenyl)pyrazine-2-carboxamide]", "IC50": "> 10"},
      {"smiles": "Nc1ncc(-c2ccccc2)nc1C(=O)NC1CCCC1", "note": "[compound 8, 3-amino-N-cyclopentyl-6-phenylpyrazine-2-carboxamide]", "IC50": "> 10"},
      {"smiles": "CN(C)C(=O)c1nc(-c2ccccc2)cnc1N", "note": "[compound 9, 3-amino-N,N-dimethyl-6-phenylpyrazine-2-carboxamide]", "IC50": "1 to 10"},
      {"smiles": "COc1cccc(-c2cnc(N)c(C(N)=O)n2)c1", "note": "[compound 10, 3-amino-6-[3-(methyloxy)phenyl]pyrazine-2-carboxamide]", "IC50": "1 to 10"},
      {"smiles": "Nc1ncc(-c2ccccc2)nc1C(=O)N1CCCC1", "note": "[compound 11, 5-phenyl-3-(pyrrolidin-1-ylcarbonyl)pyrazin-2-amine]", "IC50": "> 10"},
      {"smiles": "Nc1ncc(-c2ccccc2)nc1C(=O)NCC1CC1", "note": "[compound 12, 3-amino-N-(cyclopropylmethyl)-6-phenylpyrazine-2-carboxamide]", "IC50": "> 10"},
      {"smiles": "Nc1ncc(-c2ccccc2)nc1C(=O)NCC1CCCO1", "note": "(centres unmarked) [compound 13, 3-amino-6-phenyl-N-(tetrahydrofuran-2-ylmethyl)pyrazine-2-carboxamide]", "IC50": "> 10"},
      {"smiles": "CCCNC(=O)c1nc(-c2ccccc2)cnc1NCCC", "note": "[compound 15, 6-phenyl-N-propyl-3-(propylamino)pyrazine-2-carboxamide]", "IC50": "> 10"},
      {"smiles": "Cc1ccccc1-c1cnc(N)c(C(N)=O)n1", "note": "[compound 16, 3-amino-6-(2-methylphenyl)pyrazine-2-carboxamide]", "IC50": "> 10"},
      {"smiles": "Nc1ncc(-c2ccccc2)nc1C(=O)NC1CC1", "note": "[compound 20, 3-amino-N-cyclopropyl-6-phenylpyrazine-2-carboxamide]", "IC50": "> 10"},
      {"smiles": "NC(=O)c1nc(-c2ccc(F)c(F)c2)cnc1N", "note": "[compound 21, 3-amino-6-(3,4-difluorophenyl)pyrazine-2-carboxamide]", "IC50": "> 10"},
      {"smiles": "CNC(=O)c1nc(-c2ccc(F)cc2)cnc1N", "note": "[compound 22, 3-amino-6-(4-fluorophenyl)-N-methylpyrazine-2-carboxamide]", "IC50": "1 to 10"},
      {"smiles": "CCOc1ccc(-c2cnc(N)c(C(N)=O)n2)cc1", "note": "[compound 23, 3-amino-6-[4-(ethyloxy)phenyl]pyrazine-2-carboxamide]", "IC50": "1 to 10"},
      {"smiles": "CCOc1cccc(-c2cnc(N)c(C(N)=O)n2)c1", "note": "[compound 24, 3-amino-6-[3-(ethyloxy)phenyl]pyrazine-2-carboxamide]", "IC50": "1 to 10"},
      {"smiles": "NC(=O)c1nc(-c2ccc3c(c2)OCO3)cnc1N", "note": "[compound 25, 3-amino-6-(1,3-benzodioxol-5-yl)pyrazine-2-carboxamide]", "IC50": "> 10"},
      {"smiles": "NC(=O)c1nc(-c2cccc3ccccc23)cnc1N", "note": "[compound 26, 3-amino-6-naphthalen-1-ylpyrazine-2-carboxamide]", "IC50": "> 10"},
      {"smiles": "NC(=O)c1nc(-c2cccc(OC(F)(F)F)c2)cnc1N", "note": "[compound 28, 3-amino-6-{3-[(trifluoromethyl)oxy]phenyl}pyrazine-2-carboxamide]", "IC50": "1 to 10"},
      {"smiles": "NC(=O)c1cccc(-c2cnc(N)c(C(N)=O)n2)c1", "note": "[compound 29, 3-amino-6-[3-(aminocarbonyl)phenyl]pyrazine-2-carboxamide]", "IC50": "1 to 10"},
      {"smiles": "CC(=O)Nc1cccc(-c2cnc(N)c(C(N)=O)n2)c1", "note": "[compound 30, 6-[3-(acetylamino)phenyl]-3-aminopyrazine-2-carboxamide]", "IC50": "1 to 10"},
      {"smiles": "NC(=O)c1nc(-c2ccc(-c3ccccc3)cc2)cnc1N", "note": "[compound 31, 3-amino-6-biphenyl-4-ylpyrazine-2-carboxamide]", "IC50": "> 10"},
      {"smiles": "CN(C)c1ccc(-c2cnc(N)c(C(N)=O)n2)cc1", "note": "[compound 32, 3-amino-6-[4-(dimethylamino)phenyl]pyrazine-2-carboxamide]", "IC50": "1 to 10"},
      {"smiles": "Cc1cccc(-c2cnc(N)c(C(N)=O)n2)c1", "note": "[compound 33, 3-amino-6-(3-methylphenyl)pyrazine-2-carboxamide]", "IC50": "1 to 10"},
      {"smiles": "COC(=O)c1cccc(-c2cnc(N)c(C(N)=O)n2)c1", "note": "[compound 34, methyl 3-[5-amino-6-(aminocarbonyl)pyrazin-2-yl]benzoate]", "IC50": "1 to 10"},
      {"smiles": "NC(=O)c1nc(-c2cccc(OCc3ccccc3)c2)cnc1N", "note": "[compound 35, 3-amino-6-{3-[(phenylmethyl)oxy]phenyl}pyrazine-2-carboxamide]", "IC50": "0.05 to 1"},
      {"smiles": "NC(=O)c1nc(-c2cccc(O)c2)cnc1N", "note": "[compound 36, 3-amino-6-(3-hydroxyphenyl)pyrazine-2-carboxamide]", "IC50": "0.05 to 1"},
      {"smiles": "NC(=O)c1nc(-c2cc3ccccc3o2)cnc1N", "note": "[compound 37, 3-amino-6-(1-benzofuran-2-yl)pyrazine-2-carboxamide]", "IC50": "> 10"},
      {"smiles": "CNc1ncc(-c2ccccc2)nc1C(N)=O", "note": "[compound 38, 3-(methylamino)-6-phenylpyrazine-2-carboxamide]", "IC50": "> 10"},
      {"smiles": "NC(=O)c1nc(-c2cccc(-c3ccccc3)c2)cnc1N", "note": "[compound 41, 3-amino-6-biphenyl-3-ylpyrazine-2-carboxamide]", "IC50": "0.05 to 1"},
      {"smiles": "NC(=O)c1nc(-c2cccc(C(=O)O)c2)cnc1N", "note": "[compound 42, 3-[5-amino-6-(aminocarbonyl)pyrazin-2-yl]benzoic acid]", "IC50": "> 10"},
      {"smiles": "NC(=O)c1nc(-c2ccc(OCc3ccccc3)cc2)cnc1N", "note": "[compound 43, 3-amino-6-{4-[(phenylmethyl)oxy]phenyl}pyrazine-2-carboxamide]", "IC50": "> 10"},
      {"smiles": "CNC(=O)c1nc(-c2cccc(OCc3ccccc3)c2)cnc1N", "note": "[compound 44, 3-amino-N-methyl-6-{3-[(phenylmethyl)oxy]phenyl}pyrazine-2-carboxamide]", "IC50": "1 to 10"},
      {"smiles": "CNC(=O)c1nc(-c2cccc(O)c2)cnc1N", "note": "[compound 45, 3-amino-6-(3-hydroxyphenyl)-N-methylpyrazine-2-carboxamide]", "IC50": "0.05 to 1"},
      {"smiles": "COCCNC(=O)c1nc(-c2ccccc2)cnc1N", "note": "[compound 46, 3-amino-N-[2-(methyloxy)ethyl]-6-phenylpyrazine-2-carboxamide]", "IC50": "1 to 10"},
      {"smiles": "CC(=O)NCCNC(=O)c1nc(-c2ccccc2)cnc1N", "note": "[compound 47, N-[2-(acetylamino)ethyl]-3-amino-6-phenylpyrazine-2-carboxamide]", "IC50": "> 10"},
      {"smiles": "NNC(=O)c1nc(-c2ccccc2)cnc1N", "note": "[compound 48, 3-amino-6-phenylpyrazine-2-carbohydrazide]", "IC50": "1 to 10"},
      {"smiles": "Nc1ncc(-c2ccccc2)nc1C(=O)NO", "note": "[compound 49, 3-amino-N-hydroxy-6-phenylpyrazine-2-carboxamide]", "IC50": "1 to 10"},
      {"smiles": "CCOc1cccc(-c2cnc(N)c(C(=O)NC)n2)c1", "note": "[compound 50, 3-amino-6-[3-(ethyloxy)phenyl]-N-methylpyrazine-2-carboxamide]", "IC50": "1 to 10"},
      {"smiles": "CCOc1ccc(-c2cnc(N)c(C(=O)NC)n2)cc1", "note": "[compound 52, 3-amino-6-[4-(ethyloxy)phenyl]-N-methylpyrazine-2-carboxamide]", "IC50": "1 to 10"},
      {"smiles": "CNC(=O)c1nc(-c2cccc(C)c2)cnc1N", "note": "[compound 53, 3-amino-N-methyl-6-(3-methylphenyl)pyrazine-2-carboxamide]", "IC50": "0.05 to 1"}
    ]}
  ]
}
